Columns and labels:
[1] = target: Tyrosine-protein kinase Lck (Homo sapiens, UniProt P06239); test: Selectivity interaction (Kinase panel (KiNativ target engagement assay in Jurkat cells)) EUB0001635a LCK; assay type: cell-based; conditions: Selectivity number of off-targets 0.0, Selectivity number of targets 233.0, Source Knowledge https://www.sciencedirect.com/science/article/pii/S2451945619300674?via%3Dihub, at 1 µM
[2] = target: Activin receptor type-2A (Homo sapiens) (UniProt P27037); conditions: at 10 µM
Sequence of Activin receptor type-2A (Homo sapiens) (P27037 whole entry): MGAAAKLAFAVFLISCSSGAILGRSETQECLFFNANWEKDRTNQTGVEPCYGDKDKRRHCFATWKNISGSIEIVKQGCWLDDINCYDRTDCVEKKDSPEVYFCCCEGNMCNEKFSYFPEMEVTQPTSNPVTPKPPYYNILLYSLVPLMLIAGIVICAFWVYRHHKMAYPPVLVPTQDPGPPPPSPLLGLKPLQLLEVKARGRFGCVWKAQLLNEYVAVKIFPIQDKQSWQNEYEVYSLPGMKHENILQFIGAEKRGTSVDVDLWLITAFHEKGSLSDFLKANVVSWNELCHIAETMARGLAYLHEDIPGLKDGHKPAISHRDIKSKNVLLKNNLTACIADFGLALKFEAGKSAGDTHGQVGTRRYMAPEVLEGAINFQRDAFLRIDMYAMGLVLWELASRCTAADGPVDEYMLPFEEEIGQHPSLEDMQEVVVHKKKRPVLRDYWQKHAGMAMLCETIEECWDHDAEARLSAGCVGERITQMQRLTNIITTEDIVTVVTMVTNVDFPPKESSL

[3] = target: Serine/threonine-protein kinase MARK2 (Homo sapiens) (UniProt Q7KZI7); test: Selectivity interaction (KinomeScan (DiscoverX)) EUB0001049a MARK2; conditions: at 1 µM
Sequence of Serine/threonine-protein kinase MARK2 (Homo sapiens) (Q7KZI7 whole entry): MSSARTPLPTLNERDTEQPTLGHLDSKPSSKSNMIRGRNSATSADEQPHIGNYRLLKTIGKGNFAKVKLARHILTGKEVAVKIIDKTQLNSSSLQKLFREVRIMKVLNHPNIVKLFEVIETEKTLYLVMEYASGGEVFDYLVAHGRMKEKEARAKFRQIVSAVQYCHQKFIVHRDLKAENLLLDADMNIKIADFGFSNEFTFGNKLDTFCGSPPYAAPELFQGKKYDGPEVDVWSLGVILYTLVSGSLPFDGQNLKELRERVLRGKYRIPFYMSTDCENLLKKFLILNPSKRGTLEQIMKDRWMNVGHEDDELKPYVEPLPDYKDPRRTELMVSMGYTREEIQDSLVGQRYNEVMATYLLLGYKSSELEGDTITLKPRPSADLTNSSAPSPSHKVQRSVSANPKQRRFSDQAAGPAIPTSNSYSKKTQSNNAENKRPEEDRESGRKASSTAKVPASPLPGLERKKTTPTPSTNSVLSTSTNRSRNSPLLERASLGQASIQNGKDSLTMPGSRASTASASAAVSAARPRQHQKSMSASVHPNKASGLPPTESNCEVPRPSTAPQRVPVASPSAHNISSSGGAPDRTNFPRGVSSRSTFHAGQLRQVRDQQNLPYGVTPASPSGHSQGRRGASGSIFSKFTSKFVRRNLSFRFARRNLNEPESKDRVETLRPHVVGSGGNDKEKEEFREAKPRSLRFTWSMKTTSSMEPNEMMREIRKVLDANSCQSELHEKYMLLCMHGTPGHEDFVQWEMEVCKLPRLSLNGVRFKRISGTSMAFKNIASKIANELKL

[4] = target: Serine/threonine-protein kinase PLK3 (Homo sapiens, UniProt Q9H4B4)
Sequence of Serine/threonine-protein kinase PLK3 (Q9H4B4 whole entry): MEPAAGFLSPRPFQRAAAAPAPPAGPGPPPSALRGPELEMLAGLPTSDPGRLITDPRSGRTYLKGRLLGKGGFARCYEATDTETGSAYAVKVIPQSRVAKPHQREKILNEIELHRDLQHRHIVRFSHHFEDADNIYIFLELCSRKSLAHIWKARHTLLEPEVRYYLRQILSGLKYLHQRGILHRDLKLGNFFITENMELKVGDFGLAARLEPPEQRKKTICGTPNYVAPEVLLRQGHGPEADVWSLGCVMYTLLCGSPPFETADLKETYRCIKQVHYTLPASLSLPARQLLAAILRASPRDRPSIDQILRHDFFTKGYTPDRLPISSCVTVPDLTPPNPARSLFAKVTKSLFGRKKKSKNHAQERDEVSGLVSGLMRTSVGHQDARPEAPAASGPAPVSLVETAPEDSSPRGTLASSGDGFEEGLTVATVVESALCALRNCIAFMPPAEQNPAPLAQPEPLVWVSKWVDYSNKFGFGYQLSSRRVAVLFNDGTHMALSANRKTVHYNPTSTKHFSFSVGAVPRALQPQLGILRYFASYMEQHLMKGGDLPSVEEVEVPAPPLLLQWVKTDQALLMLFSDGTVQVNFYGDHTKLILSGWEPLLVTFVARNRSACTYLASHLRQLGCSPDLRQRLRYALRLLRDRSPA

[5] = target: T1, Serine/threonine-protein kinase ULK1 (Homo sapiens) (UniProt O75385); test: Selectivity interaction (KinomeScan (DiscoverX)) EUB0001619a ULK1; conditions: at 1 µM
T1 sequence (whole entry): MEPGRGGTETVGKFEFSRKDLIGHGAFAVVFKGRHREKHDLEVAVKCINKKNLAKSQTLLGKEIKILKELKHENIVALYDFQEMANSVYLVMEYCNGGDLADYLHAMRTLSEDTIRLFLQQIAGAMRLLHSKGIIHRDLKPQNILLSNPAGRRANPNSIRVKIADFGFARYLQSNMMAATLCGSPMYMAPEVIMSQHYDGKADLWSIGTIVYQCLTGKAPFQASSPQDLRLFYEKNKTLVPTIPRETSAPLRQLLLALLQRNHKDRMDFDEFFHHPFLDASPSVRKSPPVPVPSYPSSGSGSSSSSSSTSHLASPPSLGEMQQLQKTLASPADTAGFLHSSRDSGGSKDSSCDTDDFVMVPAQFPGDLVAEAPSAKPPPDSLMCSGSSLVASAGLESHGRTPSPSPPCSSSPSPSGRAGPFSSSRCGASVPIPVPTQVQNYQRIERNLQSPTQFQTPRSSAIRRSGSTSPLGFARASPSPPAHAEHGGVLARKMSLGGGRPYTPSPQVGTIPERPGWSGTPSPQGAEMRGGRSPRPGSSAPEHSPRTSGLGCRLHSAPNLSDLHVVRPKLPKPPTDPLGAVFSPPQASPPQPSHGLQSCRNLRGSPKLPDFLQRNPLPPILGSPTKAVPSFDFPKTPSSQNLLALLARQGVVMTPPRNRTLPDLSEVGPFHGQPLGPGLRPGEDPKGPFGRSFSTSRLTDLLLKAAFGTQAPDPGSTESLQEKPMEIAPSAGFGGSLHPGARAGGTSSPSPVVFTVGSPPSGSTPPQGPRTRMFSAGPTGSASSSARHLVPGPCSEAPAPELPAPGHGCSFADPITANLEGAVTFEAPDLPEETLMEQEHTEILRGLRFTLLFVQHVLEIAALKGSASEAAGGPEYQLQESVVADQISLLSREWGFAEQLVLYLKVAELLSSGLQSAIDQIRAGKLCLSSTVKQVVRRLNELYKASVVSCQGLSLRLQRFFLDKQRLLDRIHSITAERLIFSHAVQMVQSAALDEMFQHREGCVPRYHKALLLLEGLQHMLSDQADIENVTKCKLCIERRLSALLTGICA

[6] = target: Serine/threonine-protein kinase PAK 6 (Homo sapiens) (UniProt Q9NQU5); test: Selectivity interaction (Kinase panel (Invitrogen)) EUB0000639a PAK6; conditions: at 200 nM
Sequence of Serine/threonine-protein kinase PAK 6 (Homo sapiens) (Q9NQU5 whole entry, looked up): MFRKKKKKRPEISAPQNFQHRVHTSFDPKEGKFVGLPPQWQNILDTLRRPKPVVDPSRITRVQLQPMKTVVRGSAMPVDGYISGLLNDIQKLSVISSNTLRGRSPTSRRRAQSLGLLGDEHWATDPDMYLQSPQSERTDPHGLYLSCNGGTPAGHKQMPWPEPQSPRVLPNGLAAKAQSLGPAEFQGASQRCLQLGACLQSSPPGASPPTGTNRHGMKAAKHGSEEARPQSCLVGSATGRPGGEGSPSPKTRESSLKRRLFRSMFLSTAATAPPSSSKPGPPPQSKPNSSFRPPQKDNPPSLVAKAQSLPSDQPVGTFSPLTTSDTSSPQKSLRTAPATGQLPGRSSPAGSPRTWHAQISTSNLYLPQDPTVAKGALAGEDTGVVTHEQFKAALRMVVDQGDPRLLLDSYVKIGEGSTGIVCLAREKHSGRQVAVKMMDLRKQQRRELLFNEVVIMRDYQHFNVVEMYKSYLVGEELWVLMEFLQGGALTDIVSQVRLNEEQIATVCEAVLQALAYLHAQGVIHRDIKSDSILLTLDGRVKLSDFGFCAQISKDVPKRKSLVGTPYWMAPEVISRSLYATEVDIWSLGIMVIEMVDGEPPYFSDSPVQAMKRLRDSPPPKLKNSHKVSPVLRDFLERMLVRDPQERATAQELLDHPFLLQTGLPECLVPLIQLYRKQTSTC

[7] = target: T2, Mitogen-activated protein kinase 13 (Homo sapiens) (UniProt O15264); test: Selectivity interaction (KinomeScan (DiscoverX)) EUB0000655a MAPK13; conditions: at 10 µM
T2 sequence (whole entry): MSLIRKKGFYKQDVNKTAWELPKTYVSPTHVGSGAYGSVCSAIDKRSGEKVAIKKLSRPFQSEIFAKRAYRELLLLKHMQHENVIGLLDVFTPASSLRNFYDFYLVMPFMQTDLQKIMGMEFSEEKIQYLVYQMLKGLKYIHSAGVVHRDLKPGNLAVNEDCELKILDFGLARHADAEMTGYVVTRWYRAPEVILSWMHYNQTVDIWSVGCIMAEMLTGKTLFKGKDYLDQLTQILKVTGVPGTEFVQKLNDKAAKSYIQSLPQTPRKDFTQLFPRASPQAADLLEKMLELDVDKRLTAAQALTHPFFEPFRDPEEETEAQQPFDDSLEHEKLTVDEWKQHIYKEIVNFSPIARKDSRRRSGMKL

[8] = target: Ribosomal protein S6 kinase alpha-6 (Homo sapiens, UniProt Q9UK32); test: Selectivity interaction (KinomeScan (DiscoverX)) EUB0000092b RPS6KA6; conditions: at 10 µM
Sequence of Ribosomal protein S6 kinase alpha-6 (Q9UK32 whole entry): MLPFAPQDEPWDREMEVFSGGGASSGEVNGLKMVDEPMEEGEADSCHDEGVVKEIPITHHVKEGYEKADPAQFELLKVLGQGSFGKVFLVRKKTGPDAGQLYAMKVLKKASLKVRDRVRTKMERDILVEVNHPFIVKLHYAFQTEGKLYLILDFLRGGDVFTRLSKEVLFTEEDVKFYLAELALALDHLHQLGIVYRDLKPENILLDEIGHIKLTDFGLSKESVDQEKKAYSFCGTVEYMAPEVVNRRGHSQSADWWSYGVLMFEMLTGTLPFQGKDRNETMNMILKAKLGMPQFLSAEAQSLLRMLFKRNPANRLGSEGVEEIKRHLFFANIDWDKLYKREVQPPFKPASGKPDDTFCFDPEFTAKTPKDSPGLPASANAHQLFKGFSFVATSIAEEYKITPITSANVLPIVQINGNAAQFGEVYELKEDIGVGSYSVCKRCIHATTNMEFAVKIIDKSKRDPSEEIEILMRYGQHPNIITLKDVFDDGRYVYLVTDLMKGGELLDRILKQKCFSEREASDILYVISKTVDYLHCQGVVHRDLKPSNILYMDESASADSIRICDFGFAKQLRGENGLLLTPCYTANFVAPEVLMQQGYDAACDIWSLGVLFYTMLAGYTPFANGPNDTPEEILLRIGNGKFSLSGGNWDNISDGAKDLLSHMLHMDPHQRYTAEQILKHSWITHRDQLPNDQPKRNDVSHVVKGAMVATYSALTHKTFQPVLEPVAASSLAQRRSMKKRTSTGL

[9] = target: G protein-coupled receptor kinase 4 (Homo sapiens) (UniProt P32298); test: Selectivity interaction (Ambit KINOMEscan and KiNATiv profiling in Jurkat cells) EUB0000090b GRK4; assay type: cell-based; conditions: at 1 µM
Sequence of G protein-coupled receptor kinase 4 (Homo sapiens) (P32298 whole entry, looked up): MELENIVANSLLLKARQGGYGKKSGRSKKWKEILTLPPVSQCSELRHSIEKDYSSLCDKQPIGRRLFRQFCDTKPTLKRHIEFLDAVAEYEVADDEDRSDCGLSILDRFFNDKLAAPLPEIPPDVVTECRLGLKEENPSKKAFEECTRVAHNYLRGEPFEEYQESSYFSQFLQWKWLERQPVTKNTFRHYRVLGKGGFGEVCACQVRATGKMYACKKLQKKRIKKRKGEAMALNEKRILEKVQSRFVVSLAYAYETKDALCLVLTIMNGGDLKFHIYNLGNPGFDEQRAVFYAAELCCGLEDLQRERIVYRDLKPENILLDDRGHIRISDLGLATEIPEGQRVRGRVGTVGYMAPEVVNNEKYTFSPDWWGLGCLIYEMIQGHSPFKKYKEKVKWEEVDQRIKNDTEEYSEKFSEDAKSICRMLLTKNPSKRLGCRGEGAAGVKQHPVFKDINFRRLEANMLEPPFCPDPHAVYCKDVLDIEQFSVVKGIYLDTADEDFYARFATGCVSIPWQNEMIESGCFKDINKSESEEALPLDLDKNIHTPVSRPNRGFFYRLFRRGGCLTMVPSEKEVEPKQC

[10] = target: Proto-oncogene tyrosine-protein kinase ROS (Homo sapiens) (UniProt P08922); test: Selectivity interaction (Ambit KINOMEscan and KiNATiv profiling in Jurkat cells) EUB0000090b ROS1; assay type: cell-based; conditions: at 1 µM
[11] = target: T3, NUAK family SNF1-like kinase 2 (Homo sapiens) (UniProt Q9H093); test: Selectivity interaction (Ambit KINOMEscan and KiNATiv profiling in Jurkat cells) EUB0000090b NUAK2; assay type: cell-based; conditions: at 1 µM
T3 sequence (whole entry): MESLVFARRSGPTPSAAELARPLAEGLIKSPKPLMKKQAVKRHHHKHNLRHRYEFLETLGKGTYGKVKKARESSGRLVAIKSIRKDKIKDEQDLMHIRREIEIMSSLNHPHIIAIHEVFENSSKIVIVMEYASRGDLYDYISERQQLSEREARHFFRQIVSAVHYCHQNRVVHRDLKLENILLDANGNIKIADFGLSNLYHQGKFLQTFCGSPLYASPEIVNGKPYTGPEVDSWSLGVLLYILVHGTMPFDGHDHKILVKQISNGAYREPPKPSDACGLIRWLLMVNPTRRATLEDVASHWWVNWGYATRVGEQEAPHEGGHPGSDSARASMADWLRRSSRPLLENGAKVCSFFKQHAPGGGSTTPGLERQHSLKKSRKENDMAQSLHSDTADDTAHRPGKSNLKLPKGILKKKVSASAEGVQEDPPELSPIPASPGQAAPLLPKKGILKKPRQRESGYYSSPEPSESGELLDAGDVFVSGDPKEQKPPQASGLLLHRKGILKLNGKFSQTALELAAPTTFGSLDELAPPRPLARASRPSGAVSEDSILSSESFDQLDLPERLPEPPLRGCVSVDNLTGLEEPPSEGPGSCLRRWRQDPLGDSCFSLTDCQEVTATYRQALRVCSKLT

Sequence of Tyrosine-protein kinase Lck (P06239 2-509 limits assumed): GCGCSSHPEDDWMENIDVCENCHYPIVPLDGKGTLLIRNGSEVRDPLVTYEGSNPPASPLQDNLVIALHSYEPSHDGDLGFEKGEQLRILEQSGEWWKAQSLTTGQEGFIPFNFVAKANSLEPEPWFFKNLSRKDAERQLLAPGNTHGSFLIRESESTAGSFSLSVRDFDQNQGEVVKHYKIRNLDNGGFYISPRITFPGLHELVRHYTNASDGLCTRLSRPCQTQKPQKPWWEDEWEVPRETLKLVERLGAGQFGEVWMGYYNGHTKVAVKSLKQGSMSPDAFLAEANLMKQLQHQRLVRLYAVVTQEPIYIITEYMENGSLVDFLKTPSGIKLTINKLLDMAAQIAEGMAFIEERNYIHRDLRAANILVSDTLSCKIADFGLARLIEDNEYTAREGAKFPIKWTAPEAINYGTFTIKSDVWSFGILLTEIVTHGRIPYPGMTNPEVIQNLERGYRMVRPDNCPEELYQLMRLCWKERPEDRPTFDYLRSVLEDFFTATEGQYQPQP

C=CC(=O)Nc1ccc(C(=O)Nc2[nH]nc3c2CN(C(=O)N[C@H](CN(C)C)c2ccccc2)C3(C)C)cc1 showed a % of engagement [1] of -3.6%.

Compound Cc1cc([C@@H](C)Nc2ccccc2C(=O)O)c2nc(N3CCOCC3)cc(=O)n2c1 [AZD-6482] has a % of control [2] of 94%.

In the case of COc1cc(Nc2nc(C)cc(-c3cnn4nc(OC)ccc34)n2)cc(C(F)(F)F)c1, the % of control [3] is reported as 77%.

Work on CCc1cccc(CC)c1NC(=O)c1nn(C)c2c1CCc1cnc(Nc3ccc(C(=O)NC4CCN(C)CC4)cc3OC(F)(F)F)nc1-2 yielded an IC50 [4] greater than 10 µM.

Work on N#Cc1cccc(-c2c[nH]c3ncnc(N4CCOCC4)c23)c1 yielded a % of control [5] of 65%.

CC[C@@H]1[C@H](F)C(=O)N[C@@H]1COc1nccc2cc(C(N)=O)c(OC)cc12 [ZIMLOVISERTIB] showed a % of inhibition [6] of 5.8%.

With CN(C)CCOc1ccc(-c2nc(-c3ccncc3)c(-c3ccc4c(c3)CC/C4=N\O)[nH]2)cc1 the % of control [7] was 87%.

Work on CCC(=O)N1CCN(c2ccc(-n3c(=O)ccc4cnc5ccc(-c6cnc7ccccc7c6)cc5c43)cc2C(F)(F)F)CC1 yielded a % of control [8] of 86%.

With CN(C)C/C=C/C(=O)Nc1ccc(C(=O)N2CCCC(Nc3ncc(Cl)c(-c4c[nH]c5ccccc45)n3)C2)cc1 (stereo unspecified) the % of control [9] was 99%, the % of control [10] was 85% and the % of control [11] was 94%.
